Data taken from patent US12643887B2, “Heterocyclic derivatives with cardiomyocyte proliferation activity for treatment of heart diseases” (Tongji University, priority 2019, dated 2026).

target: T1, human HIPK2 (Homo sapiens, UniProt Q9H2X6); experiment: HIPK2 enzyme assay (ADP-Glo); type: biochemical; settings: ADP-Glo, ATP 5 μM; read-out: HIPK2 IC50
T1 construct: Recombinant human HIPK2 (1-640); GST (N); purchased SignalChem H04-11BG; host or cells: Sf9 insect cells
Description: The ability of compounds to inhibit human HIPK2 kinase activities was determined using a commercially available ADP-Glo™ Kinase Assay kit (Promega, Cat #V9102) according to the manufacturer's protocol.
Recombinant human HIPK2 (1-640) (expressed in Sf9 insect cells with an N-terminal GST tag) was purchased from SignalChem (Cat #H04-11BG). Recombinant full length human MBP (expressed in E. Coli cells with an N-terminal GST tag) was purchased from SignalChem (Cat #M42-54G). This assay, run in a 384-well plate format, is a generic method for measuring kinase activities using an ADP-Glo Kinase Assay Kit. The basic assay procedure involves two steps: (1) Enzymatic step: inhibitors are incubated with the kinase and then ATP (included in the ADP-Glo Kinase Assay Kit) and the MBP protein are added to start the enzymatic reaction; (2) Detection step: after the kinase reaction, first ADP-Glo™ Reagent is added to terminate the kinase reaction and deplete the remaining ATP. Second, the Kinase Detection Reagent is added to simultaneously convert ADP to ATP and allow the newly synthesized ATP to be measured using a luciferase/luciferin reaction. The light generated is measured using a luminometer.
Briefly, HIPK2 (1 nM) in the enzymatic buffer solutions (40 mM Tris, pH 7.5, 20 mM MgCl2, 0.1 mg/ml BSA, 50 μM DTT) were mixed with various concentrations of inhibitors (dissolved in 100% DMSO). These solutions were incubated for 30 minutes at 25° C., and subsequently a mixture of substrate peptide and ATP was added with the final peptide and ATP concentrations at 0.05 mg/ml and 5 μM, respectively. The final reaction mixture of enzyme-substrate-ATP-compound was incubated for 90 minutes at 25° C.
Afterwards ADP-Glo™ Reagent was added and the mixture was incubated at 25° C. for 60 minutes. Then Kinase Detection Reagent was added, and the final mixture was incubated at 25° C. for 60 minutes. The luminescence signal of the final solution was measured on an Envision instrument (PerkinElmer). The percent (%) inhibition at each concentration of a compound is calculated relative to the luminescence signal in the Max and Min control wells contained within each assay plate. […] The concentrations and percent inhibition values for a test compound are plotted and the concentration of the compound required to achieve 50% inhibition (IC50) is determined with a four-parameter logistic dose response equation.

T1 sequence (Q9H2X6 1-640): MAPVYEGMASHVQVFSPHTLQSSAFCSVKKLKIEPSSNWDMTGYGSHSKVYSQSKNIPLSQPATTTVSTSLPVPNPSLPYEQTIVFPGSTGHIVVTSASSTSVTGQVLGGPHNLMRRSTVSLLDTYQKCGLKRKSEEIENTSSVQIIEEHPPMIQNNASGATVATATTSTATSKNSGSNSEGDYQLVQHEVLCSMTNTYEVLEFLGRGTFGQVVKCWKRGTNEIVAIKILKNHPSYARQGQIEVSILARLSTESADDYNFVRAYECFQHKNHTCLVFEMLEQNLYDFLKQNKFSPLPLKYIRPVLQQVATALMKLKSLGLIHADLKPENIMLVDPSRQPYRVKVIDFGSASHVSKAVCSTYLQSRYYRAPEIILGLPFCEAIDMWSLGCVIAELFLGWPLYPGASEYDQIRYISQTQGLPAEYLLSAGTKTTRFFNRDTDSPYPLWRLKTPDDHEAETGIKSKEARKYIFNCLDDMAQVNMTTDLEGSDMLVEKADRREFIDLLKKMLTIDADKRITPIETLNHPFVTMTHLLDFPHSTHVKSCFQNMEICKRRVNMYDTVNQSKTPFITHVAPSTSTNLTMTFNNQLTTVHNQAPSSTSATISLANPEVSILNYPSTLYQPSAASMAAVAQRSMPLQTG

| SMILES | IC50 [µM] |
| --- | --- |
| O=C1NC(Nc2ccccc2)=N/C1=C\c1ccc2sccc2c1 [Example 72, (Z)-5-(benzo[b]thiophen-5-ylmethylene)-2-(phenylamino)-3,5-dihydro-4H-imidazol-4-one] | > 10 |
| CN(CC1CC1)C1=N/C(=C\c2ccc3ncsc3c2)C(=O)N1 [Example 33, (Z)-5-(benzo[d]thiazol-6-ylmethylene)-2-((cyclopropylmethyl)(methyl)amino)-3,5-dihydro-4H-imidazol-4-one] | 1 to 10 |
| O=C1NC(Nc2ccc3ncsc3c2)=N/C1=C\c1ccc2nc[nH]c2c1 [Example 76, (Z)-5-((1H-benzo[d]imidazol-6-yl)methylene)-2-(benzo[d]thiazol-6-ylamino)-3,5-dihydro-4H-imidazol-4-one] | 0.1 to 1 |
| CN1C(=O)/C(=C/c2ccc3c(c2)OCO3)N=C1N(C)c1ccccc1 [Example 3, (Z)-5-(benzo[d][1,3]dioxol-5-ylmethylene)-3-methyl-2-(methyl(phenyl)amino)-3,5-dihydro-4H-imidazol-4-one] | > 10 |
| CN(CC1CC1)C1=N/C(=C\c2ccc3c(c2)OCCO3)C(=O)N1 [Example 19, (Z)-2-((cyclopropylmethyl)(methyl)amino)-5-((2,3-dihydrobenzo[b][1,4]dioxin-6-yl)methylene)-3,5-di hydro-4H-imidazol-4-one] | > 10 |
| O=C1NC(N(CC2CC2)c2ccccc2)=N/C1=C\c1ccc2c(c1)OCO2 [Example 10, (Z)-5-(benzo[d][1,3]dioxol-5-ylmethylene)-2-((cyclopropylmethyl)(phenyl)amino)-3,5-dihydro-4H-imidazol-4-one] | > 10 |
| CN(C1=N/C(=C\c2ccc3c(c2)OC(F)(F)O3)C(=O)N1)c1ccccc1 [Example 17, (Z)-5-((2,2-difluorobenzo[d][1,3]dioxol-5-yl)methylene)-2-(methyl(phenyl)amino)-3,5-dihydro-4H-imidazol-4-one] | > 10 |
| COc1ccc(N(C)C2=N/C(=C\c3ccc4c(c3)OCO4)C(=O)N2)cc1 [Example 12, (Z)-5-(benzo[d][1,3]dioxol-5-ylmethylene)-2-((4-methoxyphenyl)(methyl)amino)-3,5-dihydro-4H-imidazol-4-one] | > 10 |
| O=C1NC(Nc2ccccc2)=N/C1=C\c1ccc2[nH]ccc2c1 [Example 51, (Z)-5-((1H-indol-5-yl)methylene)-2-(phenylamino)-3,5-dihydro-4H-imidazol-4-one] | > 10 |
| O=C1NC(Nc2ccccc2)=N/C1=C\c1ccc2cn[nH]c2c1 [Example 54, (Z)-5-((1H-indazol-6-yl)methylene)-2-(phenylamino)-3,5-dihydro-4H-imidazol-4-one] | > 10 |
| O=C1NC(Nc2ccc3c(c2)OCCO3)=N/C1=C\c1ccc2ncsc2c1 [Example 81, (Z)-5-(benzo[d]thiazol-6-ylmethylene)-2-((2,3-dihydrobenzo[b][1,4]dioxin-6-yl)amino)-3,5-dihydro-4H-imidazol-4-one] | < 0.1 |
| CN(C1=N/C(=C\c2ccc3c(c2)OCCO3)C(=O)N1)c1ccccc1 [Example 8, (Z)-5-((2,3-dihydrobenzo[b][1,4]dioxin-6-yl)methylene)-2-(methyl(phenyl)amino)-3,5-dihydro-4H-imidazol-4-one] | > 10 |
| O=C1NC(N(CC2CC2)c2ccc3ncsc3c2)=N/C1=C\c1ccc2ncsc2c1 [Example 105, (Z)-2-(benzo[d]thiazol-6-yl(cyclopropylmethyl)amino)-5-(benzo[d]thiazol-6-ylmethylene)-3,5-dihydro-4H-imidazol-4-one] | > 10 |
| O=C1NC(Nc2ccccc2)=N/C1=C\c1ccc2scnc2c1 [Example 14, (Z)-5-(benzo[d]thiazol-5-ylmethylene)-2-(phenylamino)-3,5-dihydro-4H-imidazol-4-one] | > 10 |
| O=C1NC(Nc2ccccc2)=N/C1=C\c1ccc2[nH]cnc2c1 [Example 26, (Z)-5-((1H-benzo[d]imidazol-5-yl)methylene)-2-(phenylamino)-3,5-dihydro-4H-imidazol-4-one] | 0.1 to 1 |
| NC(=O)CCN(C1=N/C(=C\c2ccc3c(c2)OCO3)C(=O)N1)c1ccccc1 [Example 36, (Z)-3-((4-(benzo[d][1,3]dioxol-5-ylmethylene)-5-oxo-4,5-dihydro-1H-imidazol-2-yl)(phenyl)amino)propanamide] | > 10 |
| Cn1cnc2ccc(/C=C3\N=C(Nc4ccc5ncsc5c4)NC3=O)cc21 [Example 75, (Z)-2-(benzo[d]thiazol-6-ylamino)-5-((1-methyl-1H-benzo[d]imidazol-6-yl)methylene)-3,5-dihydro-4H-imidazol-4-one] | < 0.1 |
| O=C1NC(Nc2ccccc2)=N/C1=C\c1cncs1 [Example 15, (Z)-2-(phenylamino)-5-(thiazol-5-ylmethylene)-3,5-dihydro-4H-imidazol-4-one] | > 10 |
| CN(CCN1CCOCC1)C1=N/C(=C\c2ccc3c(c2)OCO3)C(=O)N1 [Example 20, (Z)-5-(benzo[d][1,3]dioxol-5-ylmethylene)-2-(methyl(2-morpholinoethyl)amino)-3,5-dihydro-4H-imidazol-4-one] | > 10 |
| CN(C1=N/C(=C\c2ccc3[nH]cnc3c2)C(=O)N1)c1ccccc1 [Example 30, (Z)-5-((1H-benzo[d]imidazol-5-yl)methylene)-2-(methyl(phenyl)amino)-3,5-dihydro-4H-imidazol-4-one] | > 10 |
| O=C1NC(NCC2CC2)=N/C1=C\c1ccc2ncsc2c1 [Example 34, (Z)-5-(benzo[d]thiazol-6-ylmethylene)-2-((cyclopropylmethyl)amino)-3,5-dihydro-4H-imidazol-4-one] | 1 to 10 |
| Cn1ncc2cc(/C=C3\N=C(Nc4ccccc4)NC3=O)ccc21 [Example 77, (Z)-5-((1-methyl-1H-indazol-5-yl)methylene)-2-(phenylamino)-3,5-dihydro-4H-imidazol-4-one] | > 10 |
| O=C1NC(Nc2ccc3ncsc3c2)=NC1Cc1ccc2ncsc2c1 (stereo not shown) [Example 102, 2-(benzo[d]thiazol-6-ylamino)-5-(benzo[d]thiazol-6-ylmethyl)-3,5-dihydro-4H-imidazol-4-one] | 0.1 to 1 |
| O=C1NC(Nc2ccc3ncsc3c2)=N/C1=C\c1ccc2occc2c1 [Example 59, (Z)-2-(benzo[d]thiazol-6-ylamino)-5-(benzofuran-5-ylmethylene)-3,5-dihydro-4H-imidazol-4-one] | > 10 |
| O=C1NC(Nc2ccc3ncsc3c2)=N/C1=C\c1ccc2cccnc2c1 [Example 60, (Z)-2-(benzo[d]thiazol-6-ylamino)-5-(quinolin-7-ylmethylene)-3,5-dihydro-4H-imidazol-4-one] | > 10 |
| O=C1NC(N(Cc2ccccc2)c2ccccc2)=N/C1=C\c1ccc2ncsc2c1 [Example 41, (Z)-5-(benzo[d]thiazol-6-ylmethylene)-2-(benzyl(phenyl)amino)-3,5-dihydro-4H-imidazol-4-one] | 1 to 10 |
| O=C1NC(Nc2ccccc2)=N/C1=C\c1ccc(=O)[nH]c1 [Example 9, (Z)-5-((5-oxo-2-(phenylamino)-1,5-dihydro-4H-imidazol-4-ylidene)methyl)pyridin-2(1H)-one] | > 10 |
| O=C1NC(N(CC2CC2)c2ccccc2)=N/C1=C\c1ccc2c(c1)OCCO2 [Example 39, (Z)-2-((cyclopropylmethyl)(phenyl)amino)-5-((2,3-dihydrobenzo[b][1,4]dioxin-6-yl)methylene)-3,5-dihydro-4H-imidazol-4-one] | > 10 |
